# Experimental data: patent US20150297593A1 (priority 2012, published 2015)
# Tests used:
# [1] = system: influenza A virus (Mem71, H3N1); type: in vivo, Rag2−/− mice
# [2] = system: nuocytes (CD45+Lin−ST2+cKit+Sca1+); type: in vivo, BALB/c mice
# [3] = system: mouse lung nuocytes (Lin−ST2+); type: cell-based; conditions: IL-2 50 ng/ml plus rIL-33 100 ng/ml, imatinib 0.1-1 μM
# RSV = test: RSV-induced AHR model; type: in vivo, BALB/c mice; conditions: 100 mg/kg i.p. on day 1 post infection
# [4] = system: human nuocytes isolated from the BAL fluid of patients with asthma; type: cell-based; conditions: imatinib 1 μM; rIL-2 50 ng/ml plus rIL-33 100 ng/ml for 24 hrs
# [5] = system: nuocytes (CD45+Lin−ST2+ckit+Sca1+); test: FACS count of BAL and lung nuocytes after rIL-33 in Rag2−/− mice; conditions: imatinib 100 mg/kg i.p. on day 1, day 5
# Procedure: In FIGS. 5C and 5D, BAL cells (FIG. 5C) or lung cells (FIG. 5D) were taken from 8 wk old Rag2^−/− mice (n=5 per group) on day 5, and further stimulated with PMA+ionomycin for 5 hr. The percentage of lung CD45^+Lin^−ST2^+ckit^+Sca1^+ cells was assessed by FACS. Third panels show dot plots for Lin^−ST2^+ cells in lung leukocytes (CD45^+). After gating on the Lin^−ST2^+cKit^+ cells, the cells were analyzed for c-Kit and Sca1 expression (fourth panels).
# Whole lungs were flushed with PBS injected into the right ventricle, removed, and rinsed in PBS. […] The digest was passed multiple times through an 18-gauge needle and allowed to incubate for another 30 min before filtered. RBCs were removed by 4-min incubation in lysis buffer (Sigma-Aldrich, St. Louis, Mo.) at room temperature. Single-cell suspensions of spleen lymphocytes were obtained by mechanical disruption and RBC lysis.
# Cells were preincubated with anti-Fcy blocking mAb (2.4G2) and washed before staining. Cells were stained with anti-mouse PE-Texas red-conjugated CD45, FITC-conjugated CD3, CD19, CD11b, CD11c, CD49b, F4/80, Fc□R1; APC conjugated cKit,; PerCP conjugated cKit, Alexa Fluor 700-conjugated Sca1; PE conjugated biotinylated anti-ST2 antibodies. […] Cells were analyzed on a BDCanto flow cytometer (BD Biosciences, Franklin Lakes, N.J.) using FlowJo 8.3.3 software (Tree Star, Inc., Ashland, Oreg.).
# [6] = system: influenza A virus (Mem71, H3N1); design: species or system BALB/c mice; conditions: mouse, in vivo
# [7] = system: influenza A virus (Mem71, H3N1); conditions: 100 mg/kg i.p. on day 1; sera on day 11
# [8] = system: recombinant IL-33 (rIL-33)-induced AHR; conditions: mouse, in vivo
# [9] = 100 mg/kg on day 1, day 5 post-infection
# [10] = after imatinib treatment, data not shown
smiles,measurement,setting,value
Cc1ccc(NC(=O)c2ccc(CN3CCN(C)CC3)cc2)cc1Nc1nccc(-c2cccnc2)n1 [imatinib],H3N1 infection-induced inflammation in Rag2−/− mice,"[1]; 100 mg/kg i.p. on day 1, […]",inhibits
same,influenza-induced AHR in Rag2−/− mice,"[1]; mouse, in vivo",blocked
same,total number of NKT cells in the lung,"[2]; 100 mg/kg on day 1, day 5",had no effect
same,total number of conventional T cells in the lung,"[2]; 100 mg/kg on day 1, day 5",had no effect
same,frequency and absolute number of nuocytes in BAL fluid,[2]; [9],reduced
same,frequency and absolute number of nuocytes in the lungs,[2]; [9],reduced
same,frequency of NKT cells in BAL fluid,[2]; [10],slightly reduced
same,total number of BAL fluid cells,[2]; [10],slightly reduced
same,secretion of IL-5 by nuocytes (ELISA),[3],reduced
same,secretion of IL-13 by nuocytes (ELISA),[3],reduced
same,proliferation of mouse lung nuocytes (3H-thymidine incorporation),[3]; dose-dependent,blocked
same,development of RSV-induced inflammation,RSV,blocked
same,development of RSV-induced AHR,RSV; assessed 6 days post-infection,blocked
same,production of IL-13 by human nuocytes,[4],blocked
same,number of BAL and lung nuocytes (airway nuocytophilia induced with rIL-33),[5],reduced
same,inflammation (BAL fluid cells),[6],abolished
same,lung inflammation (BAL fluid cells),[6],abolished
same,anti-influenza IgG production,[7],no significant reduction
same,AHR induced with recombinant IL-33,[8],could block
Cc1ccc(NC(=O)c2ccc(CN3CCN(C)CC3)cc2)cc1Nc1nc(-c2cccnc2)cs1 [masitinib],H3N1-induced AHR,[6],abolished
same,H3N1-induced inflammation,[6],abolished
